One experiment has as its system 3T3EGFR. The experiment can be described thus: BrdU incorporation assay, 3T3EGFR, PDGF. Format: cell-based.
A further experiment deals with EGFR (Homo sapiens, UniProt P00533). The experiment can be described thus: EGF receptor phosphorylation assay in cells (ELISA). The experiment is classed as cell-based. Also noted: expressed in transfected cells; host or cells: NIH 3T3/C7 cell line. The settings on record: NIH 3T3/C7 cells, EGF stimulation. How it is done: EGF Receptor kinase activity in cells genetically engineered to express human EGF-R was measured as described below: 1. Coat ELISA plates (Coming, 96 well, Cat. #25805-96) wit 05-101 antibody at 0.5 μg per well in PBS, 150 μL final volume/well, and store overnight at 4° C. Coated plates are good for up to 10 days when stored at 4° C. 1. NIH 3T3/C7 cell line (Honegger, et al., Cell 51:199-209, 1987) can be use for this assay. 3. Resuspend cells in seeding medium (DMEM, 0.5% bovine serum), and count the cells using trypan blue. Viability above 90% is acceptable. Seed cells in DMEM medium (0.5% bovine serum) at a density of 10,000 cells per well, 100 μL per well, in a 96 well microtiter plate. Incubate seeded cells in 5% CO2 at 37° C. for about 40 hours. 1. Check seeded cells for contamination using an inverted microscope. Dilute drug stock (10 mg/mL in DMSO) 1:10 in DMEM medium, then transfer 5 μL to a test well for a final drug dilution of 1:200 and a final DMSO concentration of […]. […] The maximal phosphotyrosine signal is determined by subtracting the value of the negative controls from the positive controls. The percent inhibition of phosphotyrosine content for extract-containing wells is then calculated, after subtraction of the negative controls. The IC50 values measured in the EGF receptor phosphorylation assay for the compound of formula VI are depicted in Table 3: […]
Chain of EGFR (P00533 25-1210): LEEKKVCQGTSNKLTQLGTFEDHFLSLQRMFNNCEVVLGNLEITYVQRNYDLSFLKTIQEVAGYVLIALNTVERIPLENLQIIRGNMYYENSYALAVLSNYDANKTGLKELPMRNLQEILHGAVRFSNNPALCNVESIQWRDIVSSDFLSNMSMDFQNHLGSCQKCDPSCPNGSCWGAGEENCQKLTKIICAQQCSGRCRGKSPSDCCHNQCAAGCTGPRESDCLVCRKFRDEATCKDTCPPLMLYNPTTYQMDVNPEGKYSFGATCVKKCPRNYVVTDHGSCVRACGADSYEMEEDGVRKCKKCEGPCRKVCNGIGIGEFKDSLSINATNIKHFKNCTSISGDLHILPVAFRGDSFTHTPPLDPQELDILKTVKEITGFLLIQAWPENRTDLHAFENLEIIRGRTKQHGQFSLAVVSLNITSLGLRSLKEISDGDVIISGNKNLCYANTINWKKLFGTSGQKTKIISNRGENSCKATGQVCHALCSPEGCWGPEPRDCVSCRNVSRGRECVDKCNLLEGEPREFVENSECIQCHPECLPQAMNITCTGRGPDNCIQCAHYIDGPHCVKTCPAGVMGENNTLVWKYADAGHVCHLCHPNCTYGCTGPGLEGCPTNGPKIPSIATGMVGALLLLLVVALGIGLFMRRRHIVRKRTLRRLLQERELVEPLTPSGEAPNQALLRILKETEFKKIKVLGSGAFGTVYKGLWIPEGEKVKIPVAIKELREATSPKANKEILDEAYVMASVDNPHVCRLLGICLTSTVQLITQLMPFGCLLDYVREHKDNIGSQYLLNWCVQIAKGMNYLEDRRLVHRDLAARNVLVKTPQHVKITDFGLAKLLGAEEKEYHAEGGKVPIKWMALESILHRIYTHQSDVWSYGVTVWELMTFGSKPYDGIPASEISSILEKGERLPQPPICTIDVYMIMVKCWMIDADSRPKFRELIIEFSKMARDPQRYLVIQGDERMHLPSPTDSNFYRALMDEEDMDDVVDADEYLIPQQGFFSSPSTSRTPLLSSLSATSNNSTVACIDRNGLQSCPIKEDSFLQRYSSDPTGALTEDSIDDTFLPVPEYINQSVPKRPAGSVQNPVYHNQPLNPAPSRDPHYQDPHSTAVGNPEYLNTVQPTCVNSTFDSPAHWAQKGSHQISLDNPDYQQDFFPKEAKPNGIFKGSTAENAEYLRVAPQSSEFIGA
(In an ELISA, binding on a coated surface is turned into a signal by an enzyme label.)

What is called IC50 is the concentration at which inhibition is half-maximal. Low readings indicate inhibition by little substance, high ones a need for much substance.

As for `Cc1cc(/C=C2/C(=O)Nc3ccccc32)c(C)c2c1[nH]c1ccccc12` [VI], the figures for the half-inhibitory concentration (IC50) in the experiment on 3T3EGFR and at EGFR were 7 µM and more than 100 µM, respectively.

Values taken from patent US6514981B1, “Methods of modulating tyrosine protein kinase function with indolinone compounds” (Sugen, Inc., priority 1998, dated 2003).
